According to ChEMBL document CHEMBL3808275, “Design, synthesis and SARs of novel salicylanilides as potent inhibitors of RANKL-induced osteoclastogenesis and bone resorption” (Eur J Med Chem, 2016):
The source made the active and inactive calls. The calls are words filed in the database; no cut-off is given here.

Columns and labels:
[1] = Cytotoxicity against mouse RAW264.7 cells assessed as reduction in cell viability after 24 hrs by MTT assay; format: cell-based
RAW264.7 [2] = experiment: Cytotoxicity against mouse RAW264.7 cells assessed as reduction in cell viability at 5 uM after 24 hrs by MTT assay; format: cell-based; settings: raw264.7, 24 h
RAW264.7 [3] = experiment: Inhibition of RANKL-induced osteoclast differentiation in mouse RAW264.7 cells assessed as reduction in TRAP-positive multinucleated cells level incubated with compound in presence of RANKL for 4 days by TRAP staining based light microscopic analysis relative to RANKL alone; format: functional, cell-based; settings: RAW264.7, 96 h
RAW264.7 [4] = experiment: Inhibition of RANKL-induced osteoclast differentiation in mouse RAW264.7 cells assessed as TRAP-positive multinucleated cells level at 2.5 uM incubated with compound in presence of RANKL for 4 days by TRAP staining based light microscopic analysis relative to RANKL alone; format: functional; design: scale not given: the % may be the effect or the level left
[5] = Cytotoxicity against mouse RAW264.7 cells assessed as survival rate at 2.5 uM after 24 hrs by MTT assay; format: cell-based; settings: read-out: Survival
[6] = biological target: T1, Nuclear factor of activated T-cells, cytoplasmic 1 (Mus musculus) (UniProt O88942); experiment: Inhibition of RANKL-induced NFATc1 translocation in mouse RAW264.7 cells at 1.5 uM incubated with compound in presence of RANKL for 24 hrs by propidium iodide staining based Leica fluorescent microscopic analysis; format: cell-based
T1 sequence (whole entry): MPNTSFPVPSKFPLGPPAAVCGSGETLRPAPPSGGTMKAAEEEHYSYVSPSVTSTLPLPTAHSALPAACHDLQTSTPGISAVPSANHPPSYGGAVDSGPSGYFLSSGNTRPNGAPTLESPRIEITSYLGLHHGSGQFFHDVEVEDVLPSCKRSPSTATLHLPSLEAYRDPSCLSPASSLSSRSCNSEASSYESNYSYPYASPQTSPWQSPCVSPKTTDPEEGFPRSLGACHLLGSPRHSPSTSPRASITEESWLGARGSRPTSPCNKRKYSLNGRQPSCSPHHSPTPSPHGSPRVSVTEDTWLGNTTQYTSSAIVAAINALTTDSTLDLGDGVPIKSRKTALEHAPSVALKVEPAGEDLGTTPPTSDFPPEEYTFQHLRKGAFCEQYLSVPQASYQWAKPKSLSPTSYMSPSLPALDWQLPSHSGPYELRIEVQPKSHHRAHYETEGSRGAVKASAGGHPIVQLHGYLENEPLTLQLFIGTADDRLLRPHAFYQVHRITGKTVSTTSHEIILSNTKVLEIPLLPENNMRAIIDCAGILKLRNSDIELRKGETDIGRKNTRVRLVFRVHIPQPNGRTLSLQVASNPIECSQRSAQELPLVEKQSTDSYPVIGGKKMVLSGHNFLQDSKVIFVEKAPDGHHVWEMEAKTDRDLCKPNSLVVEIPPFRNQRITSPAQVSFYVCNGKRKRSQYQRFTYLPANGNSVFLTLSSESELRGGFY

RAW264.7 [7] = experiment: Inhibition of RANKL-induced osteoclastic bone resorption in mouse RAW264.7 cells assessed as bone resorption area at 1 uM incubated with compound in presence of RANKL for 4 days by pit formation assay; format: functional; design: scale not given: the % may be the effect or the level left
RAW264.7 [8] = experiment: Inhibition of RANKL-induced osteoclastic bone resorption in mouse RAW264.7 cells assessed as bone resorption area at 2 uM incubated with compound in presence of RANKL for 4 days by pit formation assay; format: functional; design: scale not given: the % may be the effect or the level left
RAW264.7 [9] = experiment: Inhibition of RANKL-induced NFATc1 protein expression in mouse RAW264.7 cells at 1.5 and 2 uM incubated with compound in presence of RANKL for 24 hrs by propidium iodide staining based Leica fluorescent microscopic analysis; format: functional, cell-based
[10] = biological target: T1, Nuclear factor of activated T-cells, cytoplasmic 1 (Mus musculus); experiment: Inhibition of RANKL-induced NFATc1 translocation in mouse RAW264.7 cells at 2 uM incubated with compound in presence of RANKL for 24 hrs by propidium iodide staining based Leica fluorescent microscopic analysis; format: cell-based
RAW264.7 [11] = experiment: Inhibition of RANKL-induced osteoclastic bone resorption in mouse RAW264.7 cells assessed as bone resorption area at 1.5 uM incubated with compound in presence of RANKL for 4 days by pit formation assay; format: functional; design: scale not given: the % may be the effect or the level left

Row | SMILES | CC50 at 24 h [1] [µM] | Activity (RAW264.7 [2]) | IC50 (RAW264.7 [3]) [µM] | Activity (RAW264.7 [4]) [%] | viability at 24 h, 2.5 µM [5] [%] | inhibition [6] | Activity (RAW264.7 [7]) [%] | Activity (RAW264.7 [8]) [%] | inhibition (RAW264.7 [9]) | inhibition [10] | Activity (RAW264.7 [11]) [%]
1 | O=C(Nc1ccc(Cl)cc1F)c1cc(Cl)ccc1O | 8 | Toxic | 2.12 | 15.8 | 109 |  |  |  |  |  | 
2 | O=c1oc2ccc(F)cc2c(=O)n1-c1ccc(I)cc1F | 6 | Toxic | 2.05 | 13.9 | 102 | Active | 73.07 | 16.93 | Active | Active | 42.55
3 | O=C(Nc1ccc(I)cc1F)c1cc(Br)ccc1O | 6.4 | Toxic | 1.93 | 16 | 99.6 |  |  |  |  |  | 
4 | O=C(Nc1ccc(Br)cc1F)c1cc(F)ccc1O | 7.9 | Toxic | 1.86 | 8.7 | 102 |  |  |  |  |  | 
5 | O=C(Nc1ccc(I)cc1F)c1cc(Cl)ccc1O | 7.6 | Toxic | 1.84 | 2.9 | 108 |  |  |  |  |  | 
6 | O=c1oc2ccc(Cl)cc2c(=O)n1-c1ccc(I)cc1F | 6.9 | Toxic | 2.05 | 19.1 | 95.5 |  |  |  |  |  | 
7 | O=c1oc2ccc(Cl)cc2c(=O)n1-c1ccc(F)cc1F | 13.4 | Toxic |  | 91.9 | 116 |  |  |  |  |  | 
8 | O=C(Nc1ccc(I)cc1F)c1cc(I)ccc1O | 6 | Toxic |  | 35.1 | 94.2 |  |  |  |  |  | 
9 | O=C(Nc1ccc(I)cc1F)c1cc(F)ccc1O | 7.4 | Toxic | 1.57 | 0.1 | 100 | Active |  | 23.22 | Active | Active | 63.98
10 | O=C(Nc1ccc(Br)cc1F)c1cc(Cl)ccc1O | 7.8 | Toxic | 2.14 | 23.3 | 106 |  |  |  |  |  | 
11 | O=C1c2cc(I)ccc2Oc2cc([N+](=O)[O-])ccc2N1c1ccc(F)cc1F | > 40 | Toxic |  | 85.4 | 98.2 |  |  |  |  |  | 
12 | O=C1c2cc(Br)ccc2Oc2cc([N+](=O)[O-])ccc2N1c1ccc(F)cc1F | > 40 | Toxic |  | 90.1 | 94 |  |  |  |  |  | 
13 | O=C1c2cc(F)ccc2Oc2cc([N+](=O)[O-])ccc2N1c1ccc(Br)cc1F | > 40 | Toxic |  | 88.7 | 98.8 |  |  |  |  |  | 
14 | O=C(Nc1ccc(Br)cc1F)c1cc(I)ccc1O | 8.4 | Toxic |  | 29.9 | 104 |  |  |  |  |  | 
15 | O=c1oc2ccc(F)cc2c(=O)n1-c1ccc(F)cc1F | 19.9 | Toxic |  | 89.7 | 103 |  |  |  |  |  | 
16 | O=c1oc2ccc(I)cc2c(=O)n1-c1ccc(F)cc1F | 15.7 | Toxic |  | 84.8 | 97.5 |  |  |  |  |  | 
